Measurements as given in patent US20170100447A1, “COMPOSITIONS BASED ON PLANT EXTRACTS FOR INHIBITION OF THE 5-ALPHA REDUCTASE” (BIONAP S.R.L., priority 2014, published 2017).

System: immortalized human sebocytes (SZ95 sebocyte line)
Assay: MTT assay on testosterone-stimulated sebocytes
Format: cell-based
Conditions: testosterone 10^−6 M; 9 days
Procedure: The line of immortalized human sebocytes (SZ95 sebocyte line) has been cultivated in medium Sebomed (Biochrom) supplemented with fetal calf serum 10%, […] of recombining human epidermal growth factor, 1 mM Ca^2+ and 50 μg/ml gentamicin, in an atmosphere of CO2 5% at 37° C. The SZ95 cells have been subsequently plated on wells for the MTT assays and, after 24 hours of incubation in an atmosphere of CO2 5% at 37° C., have been treated with a new culture medium containing testosterone in a final concentration of 10^−6 M and the extracts, according to the indications reported in Table 1.
The cellular vitality has been assessed for each sample after 9 days of treatment through colorimetric MTT assay (according to the protocol as above described) and expressed in a percentage value with respect to control (0%) and to the treatment with testosterone (test=100%). Each experiment has been carried out in triplicate.

With `C[C@]12CC[C@H]3[C@@H](CCC4=CC(=O)CC[C@@]43C)[C@@H]1CC[C@@H]2O` [testosterone] the “effect of testosterone on cellular proliferation of SZ95 sebocytes” value was “induces in these cells an increase of cellular proliferation”.
